Assay results reported in ChEMBL document CHEMBL4316583, “In Vitro and in Vivo Antitumor Effects of Plant-Derived Miliusanes and Their Induction of Cellular Senescence” (J Med Chem, 2019).
Activity calls are given as the source filed them. The rule behind the calls is not given here.

What was measured:
[1] = Toxicity in nude BALB/c mouse xenografted with human A375 cells assessed as body weight loss at 10 mg/kg, ip measured on day 17 and 21; format: organism-based; conditions: in vivo
[2] = Toxicity in BALB/c mouse assessed as mortality at 2.5 mg/kg, ip administered daily for 28 days; format: organism-based; conditions: in vivo, read-out: Activity
HCT-116 [3] = test: Induction of apoptosis in human HCT116 cells assessed as early apoptotic cells at 5.86 nM after 48 hrs by annexin V/propidium iodide-double staining based flow cytometry (reference value: 4.8%); format: functional
[4] = Toxicity in human HCT116 cells xenografted nude BALB/c mouse assessed as tumor growth inhibition at 7.5 mg/kg, ip administered daily for 11 days; format: organism-based; conditions: in vivo, 264 h
A-375 [5] = test: Cytotoxicity against human A375 cells assessed as cell growth inhibition after 48 hrs by sulforhodamine B assay; format: functional, cell-based; conditions: A-375, 48 h
[6] = Toxicity in BALB/c mouse assessed as mortality at 5 mg/kg, ip dosed daily and measured on day 25; format: organism-based; conditions: in vivo
HCT-116 [7] = test: Induction of apoptosis in human HCT116 cells assessed as viable cells at 5.86 nM after 48 hrs by annexin V/propidium iodide-double staining based flow cytometry (reference value: 88.3%); format: functional; conditions: HCT-116, 48 h, read-out: Activity
HeLa [8] = test: Antitumor activity against human HeLa cells xenografted in nude BALB/c mouse assessed as suppression of excised tumor size at 10 mg/kg, ip administered every other day for 21 days and observed for 6 days before sacrifice relative to control; format: functional
HCT-116 [9] = test: Antitumor activity against human HCT116 cells xenografted in nude BALB/c mouse assessed as tumor growth inhibition at 10 mg/kg, ip administered twice a week for 3 weeks relative to control; format: functional; conditions: HCT-116, ip, 504 h, read-out: TGI
HeLa [10] = test: Antitumor activity against human HeLa cells xenografted in nude BALB/c mouse assessed as tumor growth inhibition at 10 mg/kg, ip administered every other day for 21 days and observed for 6 days before sacrifice relative to control; format: functional; conditions: read-out: TGI
HCT-116 [11] = test: Induction of apoptosis in human HCT116 cells assessed as necrotic cells at 5.86 nM after 48 hrs by annexin V/propidium iodide-double staining based flow cytometry (reference value: […]); format: functional
HCT-116 [12] = test: Antitumor activity against human HCT116 cells xenografted in nude BALB/c mouse assessed as reduction in volume of growing subcutaneous tumor at 10 mg/kg, ip administered twice a week for 3 weeks; format: functional, organism-based
A2780 = test: Growth inhibition human A2780 cells after 72 hrs by MTS assay; format: functional, cell-based; conditions: A2780, 72 h
HCT-116 [13] = test: Induction of apoptosis in human HCT116 cells assessed as late apoptotic cells at 5.86 nM after 48 hrs by annexin V/propidium iodide-double staining based flow cytometry (reference value: 4.6%); format: functional
HCT-116 [14] = test: Antiproliferative activity against human HCT116 cells assessed as inhibition of colony formation at 1.77 uM after 14 days by crystal violet-staining based assay; format: functional, cell-based
HCT-116 [15] = test: Cytotoxicity against human HCT116 cells assessed as cell growth inhibition after 24 hrs by sulforhodamine B assay; format: functional, cell-based; conditions: HCT-116, 24 h
[16] = Toxicity in nude BALB/c mouse xenografted with human HeLa cells assessed as body weight loss at 20 mg/kg, administered every other day for 21 days; format: organism-based; conditions: in vivo, 504 h
HCT-116 [17] = test: Induction of cellular senescence in human HCT116 cells assessed as up-regulation of p21 protein expression at 0.05 to 0.2 ug/ml after 48 hrs by Western blot analysis; format: functional, cell-based
HeLa [18] = test: Antitumor activity against human HeLa cells xenografted in nude BALB/c mouse assessed as suppression of excised tumor size at 20 mg/kg, ip administered every other day for 21 days and observed for 6 days before sacrifice relative to control; format: functional
HCT-116 [19] = test: Induction of cellular senescence in human HCT116 cells at 0.22 uM after 48 hrs by SA-beta-gal-staining based assay; format: functional, cell-based
HCT-116 [20] = test: Induction of cellular senescence in human HCT116 cells assessed as up-regulation of TP53 gene at 0.22 uM after 48 hrs by qPCR assay; format: functional, cell-based
Mus musculus [21] = test: Induction of cellular senescence in BALB/c mouse xenografted with human HCT116 cells assessed as up-regulation of p21 protein expression at 20 mg/kg, administered every other day for 3 weeks by immunohistochemical analysis; format: functional, organism-based
A-375 [22] = test: Antitumor activity against human A375 cells xenografted in nude BALB/c mouse assessed as tumor growth inhibition at 15 mg/kg, ip administered every other day for 23 days relative to control; format: functional; conditions: A-375, ip, 552 h, read-out: TGI
A-375 [23] = test: Antitumor activity against human A375 cells xenografted in nude BALB/c mouse assessed as tumor growth inhibition at 7.5 mg/kg, ip administered every other day for 23 days relative to control; format: functional; conditions: A-375, ip, 552 h, read-out: TGI
HeLa [24] = test: Antitumor activity against human HeLa cells xenografted in nude BALB/c mouse assessed as suppression of excised tumor size at 30 mg/kg, ip administered every other day for 21 days and observed for 6 days before sacrifice relative to control; format: functional
A-375 [25] = test: Antitumor activity against human A375 cells xenografted in nude BALB/c mouse assessed as suppression of tumor volume at 7.5 mg/kg, ip administered every other day for 23 days relative to control; format: functional; conditions: A-375, ip, 552 h, read-out: TGI
HCT-116 [26] = test: Induction of cellular senescence in human HCT116 cells assessed as up-regulation of p16 protein expression at 0.05 to 0.2 ug/ml after 48 hrs by Western blot analysis; format: functional, cell-based
[27] = Toxicity in nude BALB/c mouse xenografted with human HCT116 cells assessed as body weight loss at 10 to 20 mg/kg, ip measured on day 10 and 11; format: organism-based; conditions: in vivo
Mus musculus [28] = test: Effect on p27 protein expression in BALB/c mouse xenografted with human HCT116 cells at 20 mg/kg, administered every other day for 3 weeks by immunohistochemical analysis; format: functional, organism-based
HCT-116 [29] = test: Antiproliferative activity against human HCT116 cells xenografted in BALB/c mouse at 20 mg/kg, administered every other day for 3 weeks by Ki67-staining based assay; format: functional, organism-based
[30] = Toxicity in nude BALB/c mouse xenografted with human HCT116 cells assessed as body weight loss at 10 mg/kg, ip administered daily for 3 weeks; format: organism-based; conditions: in vivo, 504 h
HT-29 = test: Growth inhibition human HT-29 cells after 72 hrs by MTS assay; format: functional, cell-based
HCT-116 [31] = test: Antitumor activity against human HCT116 cells xenografted in nude BALB/c mouse assessed as tumor growth inhibition at 10 mg/kg, ip administered daily for 21 days relative to control; format: functional; conditions: HCT-116, ip, 504 h, read-out: TGI
HCT-116 [32] = test: Induction of cellular senescence in human HCT116 cells assessed as up-regulation of p21 protein expression at 0.22 uM after 48 hrs in presence of p21 siRNA by SA-beta-gal-staining based Western blot analysis; format: functional, cell-based
A-375 [33] = test: Antitumor activity against human A375 cells xenografted in nude BALB/c mouse assessed as suppression of tumor volume at 15 mg/kg, ip administered every other day for 23 days relative to control; format: functional; conditions: A-375, ip, 552 h, read-out: TGI
[34] = Toxicity in nude BALB/c mouse xenografted with human HCT116 cells assessed as body weight loss at 40 mg/kg, administered every other day for 21 days; format: organism-based; conditions: in vivo, 504 h
HeLa [35] = test: Antitumor activity against human HeLa cells xenografted in nude BALB/c mouse assessed as tumor growth inhibition at 30 mg/kg, ip administered every other day for 21 days and observed for 6 days before sacrifice relative to control; format: functional; conditions: read-out: TGI
HCT-116 [36] = test: Antitumor activity against human HCT116 cells xenografted in nude BALB/c mouse assessed as tumor growth inhibition at 20 mg/kg, ip administered every other day for 21 days relative to control; format: functional; conditions: HCT-116, ip, 504 h, read-out: TGI
HCT-116 [37] = test: Antitumor activity against human HCT116 cells xenografted in nude BALB/c mouse assessed as tumor growth inhibition at 20 mg/kg, ip administered daily for 21 days relative to control; format: functional; conditions: HCT-116, ip, 504 h, read-out: TGI
[38] = Toxicity in nude BALB/c mouse xenografted with human HeLa cells assessed as body weight loss at 30 mg/kg, administered every other day for 21 days; format: organism-based; conditions: in vivo, 504 h
[39] = Toxicity in nude BALB/c mouse xenografted with human A375 cells assessed as body weight loss at 15 mg/kg, ip administered every other day for 23 days; format: organism-based; conditions: in vivo, 552 h
HeLa [40] = test: Antitumor activity against human HeLa cells xenografted in nude BALB/c mouse assessed as tumor growth inhibition at 20 mg/kg, ip administered every other day for 21 days and observed for 6 days before sacrifice relative to control; format: functional; conditions: read-out: TGI
HCT-116 [41] = test: Induction of cellular senescence in human HCT116 cells assessed as up-regulation of CDKN1A gene at 0.22 uM after 48 hrs by qPCR assay; format: functional, cell-based
Mus musculus [42] = test: Induction of cellular senescence in BALB/c mouse xenografted with human HCT116 cells assessed as up-regulation of p16 protein expression at 20 mg/kg, administered every other day for 3 weeks by immunohistochemical analysis; format: functional, organism-based
HCT-116 [43] = test: Cytotoxicity against human HCT116 cells assessed as cell growth inhibition after 48 hrs by sulforhodamine B assay; format: functional, cell-based; conditions: HCT-116, 48 h
[44] = Toxicity in nude BALB/c mouse xenografted with human HCT116 cells assessed as body weight loss at 30 mg/kg, ip administered daily for 3 weeks; format: organism-based; conditions: in vivo, 504 h

CC(=O)O[C@H]1C(=O)[C@@]2(C)[C@H]([C@H](OC(=O)c3ccccc3)[C@]3(O)C[C@H](OC(=O)[C@H](O)[C@@H](NC(=O)c4ccccc4)c4ccccc4)C(C)=C1C3(C)C)[C@]1(OC(C)=O)CO[C@@H]1C[C@@H]2O [PACLITAXEL]
Activity [1]: Toxic | mortality at 672 h [2]: 30% | Activity (HCT-116 [3]): 14.1% | Activity [4]: Toxic | IC50 (A-375 [5]): 2 nM | Activity [6]: Toxic | viability at 0.00586 µM (HCT-116 [7]): 67.3% | Activity (HeLa [8]): 48.9% | inhibition in vivo at 10 mg/kg (HCT-116 [9]): 52.6% | inhibition in vivo at 10 mg/kg (HeLa [10]): 46.5% | Activity (HCT-116 [11]): 9.2% | Activity (HCT-116 [12]): Active | IC50 (A2780): 1.5 nM | Activity (HCT-116 [13]): 9.4%

CC(C)=CCC/C(C)=C/[C@H]1OC(=O)C[C@]12C[C@H](OC(=O)c1ccc(N(C)C)cc1)C=CC2=O
Activity (HCT-116 [14]): Active | IC50 (HCT-116 [15]): 2570 nM | Activity [16]: 0.9 g | Activity (HCT-116 [17]): Active | Activity (HeLa [18]): 55.4% | Activity (HCT-116 [19]): Active | Activity (HCT-116 [20]): Active | Activity (Mus musculus [21]): Active | inhibition in vivo at 15 mg/kg (A-375 [22]): 19.4% | inhibition in vivo at 7.5 mg/kg (A-375 [23]): 20.6% | Activity (HeLa [24]): 76.9% | inhibition in vivo at 7.5 mg/kg (A-375 [25]): 39.6% | Activity (HCT-116 [26]): Active | Activity [27]: Toxic | Activity (Mus musculus [28]): inactive | Activity (HCT-116 [29]): Active | Activity [30]: Non-Toxic | growth inhibition (GI) (HT-29): Active | inhibition in vivo at 10 mg/kg (HCT-116 [31]): 51% | Activity (HeLa [8]): 29.6% | inhibition in vivo at 10 mg/kg (HeLa [10]): 17.2% | Activity (HCT-116 [32]): inactive | inhibition in vivo at 15 mg/kg (A-375 [33]): 39.4% | Activity [34]: Non-Toxic | inhibition in vivo at 30 mg/kg (HeLa [35]): 75.9% | inhibition in vivo at 20 mg/kg (HCT-116 [36]): 40 to 48.3% | inhibition in vivo at 20 mg/kg (HCT-116 [37]): 57.1% | Activity [38]: 2.2 g | Activity [39]: 1.5 g | inhibition in vivo at 20 mg/kg (HeLa [40]): 54.7% | Activity (HCT-116 [41]): Active | Activity (Mus musculus [42]): Active | IC50 (HCT-116 [43]): 1690 nM | Activity [44]: 2 g
